Reference: publication PMC7340851 (Bioorganic & medicinal chemistry, 2020)
Read-outs that look alike come from different tables or passages of the source.

What was measured:
5-HT2AR = 5-HT2AR (Homo sapiens, UniProt P28223); test: 5-HT2AR radioligand binding assay
5-HT6R = 5-HT6R (Homo sapiens, UniProt P50406); test: 5-HT6R radioligand binding assay; details: [3H]LSD radioligand; triplicate; na = not active (<50% inhibition in a primary assay)
5-HT7AR = 5-HT7AR (Homo sapiens, UniProt P34969); test: 5-HT7AR radioligand binding assay
D5R = D5R (Homo sapiens, UniProt P21918); test: D5R radioligand binding assay; details: triplicate; na = not active (<50% inhibition in a primary assay)
[1] = [3H]Ketanserin radioligand, triplicate, na = not active (<50% inhibition in a primary assay)

Sequence of D5R (P21918 whole entry): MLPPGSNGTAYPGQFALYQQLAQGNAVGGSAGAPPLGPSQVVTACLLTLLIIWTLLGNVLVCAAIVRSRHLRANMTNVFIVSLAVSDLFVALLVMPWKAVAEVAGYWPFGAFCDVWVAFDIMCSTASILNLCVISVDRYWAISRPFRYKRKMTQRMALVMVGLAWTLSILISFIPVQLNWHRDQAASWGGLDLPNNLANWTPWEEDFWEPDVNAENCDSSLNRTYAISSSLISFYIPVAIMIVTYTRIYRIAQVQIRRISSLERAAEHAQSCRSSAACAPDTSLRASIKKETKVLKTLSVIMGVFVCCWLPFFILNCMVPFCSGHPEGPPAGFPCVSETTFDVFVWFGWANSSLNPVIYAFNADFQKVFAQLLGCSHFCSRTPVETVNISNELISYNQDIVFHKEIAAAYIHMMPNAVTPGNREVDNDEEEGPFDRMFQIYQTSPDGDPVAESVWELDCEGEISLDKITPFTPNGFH
Sequence of 5-HT2AR (P28223 whole entry): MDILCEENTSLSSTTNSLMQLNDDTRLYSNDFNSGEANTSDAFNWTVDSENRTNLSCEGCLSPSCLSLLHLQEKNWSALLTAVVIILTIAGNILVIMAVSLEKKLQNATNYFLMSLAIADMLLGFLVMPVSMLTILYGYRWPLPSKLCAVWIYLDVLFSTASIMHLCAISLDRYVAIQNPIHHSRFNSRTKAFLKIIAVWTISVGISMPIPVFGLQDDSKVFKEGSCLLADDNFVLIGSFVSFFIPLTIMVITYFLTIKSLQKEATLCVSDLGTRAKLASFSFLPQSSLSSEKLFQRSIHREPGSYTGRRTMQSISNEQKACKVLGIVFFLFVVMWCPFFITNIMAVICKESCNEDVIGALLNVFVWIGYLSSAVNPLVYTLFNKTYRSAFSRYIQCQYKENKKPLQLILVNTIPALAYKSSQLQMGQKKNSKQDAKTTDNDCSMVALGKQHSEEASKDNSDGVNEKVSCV
Sequence of 5-HT6R (P50406 whole entry): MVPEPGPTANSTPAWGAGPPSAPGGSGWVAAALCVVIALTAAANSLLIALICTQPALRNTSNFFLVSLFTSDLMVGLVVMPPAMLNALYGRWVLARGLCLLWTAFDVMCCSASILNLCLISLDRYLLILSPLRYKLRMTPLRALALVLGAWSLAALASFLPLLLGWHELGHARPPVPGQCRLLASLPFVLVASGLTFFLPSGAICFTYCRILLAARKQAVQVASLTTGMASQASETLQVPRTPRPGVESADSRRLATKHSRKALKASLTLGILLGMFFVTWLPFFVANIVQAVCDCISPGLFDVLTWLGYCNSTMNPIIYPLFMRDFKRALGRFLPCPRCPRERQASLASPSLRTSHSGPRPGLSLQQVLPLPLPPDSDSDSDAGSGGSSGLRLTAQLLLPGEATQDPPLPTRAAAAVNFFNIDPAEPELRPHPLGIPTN
Sequence of 5-HT7AR (P34969 1-445 isoform P34969-2): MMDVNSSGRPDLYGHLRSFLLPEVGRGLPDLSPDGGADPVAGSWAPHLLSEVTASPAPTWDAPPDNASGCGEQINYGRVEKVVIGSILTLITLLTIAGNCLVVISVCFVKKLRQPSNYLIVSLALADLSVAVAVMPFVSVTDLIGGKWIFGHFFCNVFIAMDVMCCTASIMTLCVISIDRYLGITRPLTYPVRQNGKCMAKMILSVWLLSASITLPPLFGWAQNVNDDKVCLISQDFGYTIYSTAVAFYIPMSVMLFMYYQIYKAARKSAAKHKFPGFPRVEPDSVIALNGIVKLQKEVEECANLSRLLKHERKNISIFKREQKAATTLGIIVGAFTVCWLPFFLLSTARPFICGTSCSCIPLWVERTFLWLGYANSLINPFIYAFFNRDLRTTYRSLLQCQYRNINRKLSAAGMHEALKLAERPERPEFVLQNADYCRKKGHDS

SMILES | Ki 5-HT2AR (5-HT2AR; [1]) | Ki D5R (D5R) | also measured
COc1cc2c3c(c1OC)-c1cc(NS(C)(=O)=O)ccc1CC3N(C)CC2 (centres unmarked) [Compound 15, N-(1,2-dimethoxy-6-methyl-5,6,6a,7-tetrahydro-4H-dibenzo[de,g]quinolin-10-yl)methanesulfonamide] | lack of affinity |  | 
COc1cc2c3c(c1OC)-c1cc(NC(N)=O)ccc1CC3N(C)CC2 (centres unmarked) [Compound 19, 1-(1,2-dimethoxy-6-methyl-5,6,6a,7-tetrahydro-4H-dibenzo[de,g]quinolin-10-yl)urea] | lack of affinity |  | 
CCCN1CCc2cccc3c2C1Cc1ccc(NC(C)=O)cc1-3 (centres unmarked) [Compound 25, N-(6-propyl-5,6,6a,7-tetrahydro-4H-dibenzo[de,g]quinolin-10-yl)acetamide] | no affinity |  | Ki 5-HT6R (5-HT6R): no affinity; Ki 5-HT7AR (5-HT7AR; [3H]LSD radioligand, triplicate, na = not active (<50% inhibition in a primary assay)): no affinity
CN1CCc2cccc3c2C1Cc1ccc(NC(N)=O)cc1-3 (centres unmarked) [Compound 29, 1-(6-methyl-5,6,6a,7-tetrahydro-4H-dibenzo[de,g]quinolin-10-yl)urea] |  | lacked affinity | 
CN(C)c1ccc2c(c1)-c1cccc3c1C(C2)N(C)CC3 (centres unmarked) [Compound 31, N,N,6-trimethyl-5,6,6a,7-tetrahydro-4H-dibenzo[de,g]quinolin-10-amine] |  |  | Ki 5-HT6R (5-HT6R): fairly weak affinity; Ki 5-HT2AR (5-HT2AR): fairly weak affinity

Now from value to compound, other results behind:

Ki 5-HT2AR (5-HT2AR; [1]) | Ki D5R (D5R) | SMILES | also measured
 | no affinity | CN1CCc2cccc3c2C1Cc1ccc2nc(N)sc2c1-3 (centres unmarked) [Compound 33a, 7-methyl-6a,7,8,9-tetrahydro-6H-benzo[de]thiazolo[4’,5’:5,6]benzo[1,2-g]quinolin-2-amine] | selectivity for 5-HT7AR versus 5-HT1AR (5-HT7AR; ratio of binding affinities): approximately 19 fold
 | lack of affinity | CCCN1CCc2cccc3c2C1Cc1cc2sc(N)nc2cc1-3 (centres unmarked) [Compound 34b, 6-propyl-5,6,6a,7-tetrahydro-4H-benzo[de]thiazolo[5’,4’:4,5]benzo[1,2-g]quinolin-10-amine] | 
